The supplement of paper PMC10307832

Assays:
Experiment in all cases: relative viability (nuclei count vs DMSO), 5 days (fraction); higher = more cells survive
AGI-6780 + Luminespib = compound: O=C(Nc1cccc(C(F)(F)F)c1)Nc1cc(S(=O)(=O)NC2CC2)ccc1-c1ccsc1 [AGI-6780] + CCNC(=O)c1noc(-c2cc(C(C)C)c(O)cc2O)c1-c1ccc(CN2CCOCC2)cc1 [Luminespib] (partner 0.01 µM)
How it was run: (§1)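 Relative viability equals treated-well nuclei counts divided by vehicle-well nuclei counts. Counts came from 4× images of lung cancer cell lines grown in 1536-well plates for 5 days after pin-tool dosing on the day after seeding. Dosing used one drug alone or a fixed anchor-drug dose plus five library-drug doses (not always all listed) in √10 steps, and values are medians of duplicate plates.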

AGI-6780 + Foretinib = compound: O=C(Nc1cccc(C(F)(F)F)c1)Nc1cc(S(=O)(=O)NC2CC2)ccc1-c1ccsc1 [AGI-6780] + COc1cc2c(Oc3ccc(NC(=O)C4(C(=O)Nc5ccc(F)cc5)CC4)cc3F)ccnc2cc1OCCCN1CCOCC1 [Foretinib] (partner 0.25 µM)
How it was run: as §1

AGI-6780 + Decitabine = compound: O=C(Nc1cccc(C(F)(F)F)c1)Nc1cc(S(=O)(=O)NC2CC2)ccc1-c1ccsc1 [AGI-6780] + Nc1ncn([C@H]2C[C@H](O)[C@@H](CO)O2)c(=O)n1 [Decitabine] (partner 2 µM)
How it was run: as §1

AGI-6780 + Dasatinib = compound: O=C(Nc1cccc(C(F)(F)F)c1)Nc1cc(S(=O)(=O)NC2CC2)ccc1-c1ccsc1 [AGI-6780] + Cc1nc(Nc2ncc(C(=O)Nc3c(C)cccc3Cl)s2)cc(N2CCN(CCO)CC2)n1 [Dasatinib] (partner 0.075 µM)
How it was run: as §1

Cell Line	relative viability (AGI-6780 + Luminespib; first compound 0.08 µM)	relative viability (AGI-6780 + Luminespib; first compound 0.253 µM)	relative viability (AGI-6780 + Luminespib; first compound 0.8 µM)	relative viability (AGI-6780 + Luminespib; first compound 2.53 µM)	relative viability (AGI-6780 + Luminespib; first compound 8 µM)	relative viability (AGI-6780 + Foretinib; first compound 0.08 µM)	relative viability (AGI-6780 + Foretinib; first compound 0.253 µM)	relative viability (AGI-6780 + Foretinib; first compound 0.8 µM)	relative viability (AGI-6780 + Foretinib; first compound 2.53 µM)	relative viability (AGI-6780 + Foretinib; first compound 8 µM)	relative viability (AGI-6780 + Decitabine; first compound 0.08 µM)	relative viability (AGI-6780 + Decitabine; first compound 0.253 µM)	relative viability (AGI-6780 + Decitabine; first compound 0.8 µM)	relative viability (AGI-6780 + Decitabine; first compound 2.53 µM)	relative viability (AGI-6780 + Decitabine; first compound 8 µM)	relative viability (AGI-6780 + Dasatinib; first compound 0.08 µM)	relative viability (AGI-6780 + Dasatinib; first compound 0.253 µM)	relative viability (AGI-6780 + Dasatinib; first compound 0.8 µM)	relative viability (AGI-6780 + Dasatinib; first compound 2.53 µM)	relative viability (AGI-6780 + Dasatinib; first compound 8 µM)
201T	1.09	1.04	1.06	0.988	1.08	1.09	1.08	1.2	1.09	1.05	0.88	0.841	0.861	0.87	0.878	0.613	0.53	0.564	0.476	0.6
A549						1.04	0.956	0.88	0.729	1.07	0.329	0.211	0.275	0.292	0.322					
A-427	0.943	0.717	0.882	0.802	0.97	0.991	0.951	1.15	0.825	1.19		0.538	0.573	0.508	0.527	0.696	0.66	0.759	0.582	0.668
ABC-1	0.58	0.447	0.63	0.821	0.408	1.13	1.17	1.11	1.07	0.941		1.42	0.87	1.05	0.924	0.589	0.57	0.632	0.553	0.712
BEN	0.355	0.331	0.37	0.33	0.358	0.481	0.654	0.662	0.533	0.619	0.662	0.757	0.722		0.836	0.219	0.348	0.291	0.3	0.377
CAL-12T	0.245	0.58	0.644	0.476	0.402	1	1.15	1.13	1.34	1.11						0.549	0.501	0.676	0.4	0.487
COR-L23	0.772	0.641	0.695	0.663	0.643	1.03	0.948	0.883	1.06	0.837	0.449	0.455	0.477	0.399	0.416	0.548	0.42	0.529	0.496	0.488
COR-L 105	0.81	0.654	0.725	0.618	0.535	1.09	0.922	0.962	1.25	0.981	0.602	0.89	0.649	0.655	0.713	0.345	0.349	0.397	0.369	0.378
Calu-6						0.88	0.871	0.96	0.89	0.885										
ChaGo-K-1	0.573	0.467	0.64	0.497	0.76	0.986	0.977	0.946	0.751	0.948	0.507	0.534	0.512	0.455	0.425	0.612	0.543	0.576	0.524	0.642
EBC-1						0.104	0.105	0.106	0.11	0.104										
EKVX	0.916	0.877	0.989	0.918	0.847	0.684	0.91	0.756	0.399	0.849	0.347	0.343	0.363	0.324	0.432	0.583	0.467	0.598	0.6	0.619
EMC-BAC-2	1.2	1.24	1.17	0.947	1.18	1.05	1.04	0.961	0.842	1.18		1.01	0.927	0.855	1.04	0.313	0.338	0.311	0.273	0.334
EPLC-272H		0.359	0.267	0.166	0.244		0.762	0.891	0.489	0.619	0.405	0.348	0.359	0.372	0.374		0.423	0.292	0.285	0.365
H3255	0.808	0.925	0.905	0.852	0.949	0.928	0.798	1.03	0.909	0.85	0.54	0.612	0.719		0.542	0.349	0.374	0.456	0.353	0.333
HARA	0.787	0.594	0.177	0.944	0.93	0.957	0.864	0.963	0.83	0.91	0.481	0.446	0.513	0.402	0.61	0.229	0.278	0.259	0.179	0.233
HCC-15	0.407	0.247	0.274	0.38	0.3	1.1	1.03	1.1	0.871	0.968	0.677	0.756	0.666	0.546	0.697	0.732	0.636	0.736	0.437	0.621
HCC-44	1.18	1.01	1.16	1.09	0.982						0.926	0.977	0.997	0.94	0.968					
HCC-78							0.53	0.676	0.606	0.688	0.604	0.695	0.708	0.661	0.688		0.388	0.433	0.364	0.351
HCC-366						0.857	0.951	0.96	0.881	0.828	0.341	0.304	0.39	0.308	0.355	0.678	0.608	0.684	0.245	0.556

Cell Line	relative viability (AGI-6780 + Luminespib; first compound 0.08 µM)	relative viability (AGI-6780 + Luminespib; first compound 0.253 µM)	relative viability (AGI-6780 + Luminespib; first compound 0.8 µM)	relative viability (AGI-6780 + Luminespib; first compound 2.53 µM)	relative viability (AGI-6780 + Luminespib; first compound 8 µM)	relative viability (AGI-6780 + Foretinib; first compound 0.08 µM)	relative viability (AGI-6780 + Foretinib; first compound 0.253 µM)	relative viability (AGI-6780 + Foretinib; first compound 0.8 µM)	relative viability (AGI-6780 + Foretinib; first compound 2.53 µM)	relative viability (AGI-6780 + Foretinib; first compound 8 µM)	relative viability (AGI-6780 + Decitabine; first compound 0.08 µM)	relative viability (AGI-6780 + Decitabine; first compound 0.253 µM)	relative viability (AGI-6780 + Decitabine; first compound 0.8 µM)	relative viability (AGI-6780 + Decitabine; first compound 2.53 µM)	relative viability (AGI-6780 + Decitabine; first compound 8 µM)	relative viability (AGI-6780 + Dasatinib; first compound 0.08 µM)	relative viability (AGI-6780 + Dasatinib; first compound 0.253 µM)	relative viability (AGI-6780 + Dasatinib; first compound 0.8 µM)	relative viability (AGI-6780 + Dasatinib; first compound 2.53 µM)	relative viability (AGI-6780 + Dasatinib; first compound 8 µM)
HCC-827	0.584	0.586	0.707	0.467	0.454	1.09	1.09	1.1	0.938	1.03	0.331	0.314	0.39	0.29	0.336	0.363	0.23	0.337	0.273	0.293
HOP-62	0.963	0.983	0.925	1	0.95	1.08	1.06	1.14	1.16	1.15	0.199	0.264	0.235	0.25	0.218	0.713	0.642	0.633	0.634	0.63
IA-LM						1.28	1.13	1.21	1.13	1.15										
LC-2-ad	1	0.915	1.11	1.05	0.921	0.939	0.849	1.04	0.913	0.901	0.835	0.804	0.791	0.868	0.793	0.604	0.573	0.677	0.482	0.515
LCLC-97TM1	0.814	0.703	0.876	0.71	0.714	1.09	0.929	0.929	0.864	0.84	0.221	0.219	0.304	0.19	0.231	0.881	0.887	0.868	0.654	0.817
LCLC-103H	1.07	0.896	0.986	0.971	0.963	0.883	0.745	0.702	0.652	0.748	0.768	0.824	0.714	0.726	0.753	0.462	0.565	0.51	0.318	0.503
LK-2	0.189	0.169	0.183		0.202	1.23	1.15	1.21		1.53	0.282	0.402	0.322		0.477	0.242	0.298	0.286		0.315
LOU-NH91	0.411	0.337	0.436	0.328	0.305	0.946	0.908	0.961	0.93	0.893	0.834	0.811	0.803	0.826	0.802	0.533	0.516	0.553	0.531	0.558
LU99A	0.229	0.258	0.235	0.223	0.277	0.915	0.813	0.874	0.633	0.738	0.889	1.09	0.903	0.805	0.988	0.52	0.58	0.689	0.401	0.629
LXF-289	0.776	0.723	0.679	0.606	0.659	1	1	1.04	0.954	0.934	0.33	0.393	0.358	0.311	0.366	0.228	0.213	0.192	0.155	0.204
NCI-H23		0.202	0.231		0.205	1.12	0.968	1.02	0.96	0.865	0.3	0.327	0.285	0.294	0.313	0.922	0.701	0.752	0.378	0.735
NCI-H322M	0.889	0.901	0.912	0.744	0.814	1.06	1.01	1.1	1.07	0.982		0.799	0.68	0.612	0.708	0.253	0.259	0.242	0.237	0.261
NCI-H358	0.37	0.255	0.424	0.204	0.439	0.631	0.688	0.647	0.573	0.79	0.219	0.242	0.208	0.184	0.194	0.184	0.175	0.17	0.151	0.197
NCI-H522	1.18	1.14	1.1	1.12	1.17						0.612	0.583	0.722		0.588	0.941	0.85	1.01	0.812	0.836
NCI-H1299						1.09	1.07	1.07	1.05	1.12										
NCI-H1563	0.585	0.537	0.577	0.492	0.542	0.901	0.977	1.02	0.89	0.992						0.51	0.51	0.459	0.459	0.459
NCI-H1648											0.551	0.418	0.506	0.459	0.627					
NCI-H1703							0.327	0.333	0.36	0.393										
NCI-H1792	0.52	0.354	0.371	0.443	0.366						0.665	0.437	0.536		0.49		0.859	0.663	0.719	0.728
NCI-H2228	0.128	0.15	0.148	0.114	0.113	1	0.767	0.598	0.709	0.853						0.528	0.555	0.468	0.381	0.545
